Assay results taken from publication PMC6050537, “Inhibition of low-density lipoprotein receptor degradation with a cyclic peptide that disrupts the homodimerization of IDOL E3 ubiquitin ligase” (Chemical Science, 2018).
Like-named read-outs stand apart in the source and are kept apart here. One block for each compound: values may come before it. Residues, ends and D or L forms follow the SMILES beside them.

Assays:
[1] = Solubility (qualitative remarks); type: physicochemical
HepG2 cells = conditions: concentrations up to 100 μM, 72 h
Method: (§1) Cell viability was assessed using the CellTiter-Glo 2.0 assay (Promega) according to the manufacturer's instructions. Briefly, cells were plated at a density of 3.3 × 10^4 cells per well in a 96 well plate and incubated overnight (37 °C, 5% CO2). Cells were treated with increasing concentrations of inhibitor and incubated in lipoprotein depleted serum for 72 h (37 °C, 5% CO2). The plate was equilibrated to room temperature for 30 min prior to the addition an equal volume of CellTiter-Glo 2.0 (Promega) reagent to media. The contents were mixed for 2 min on an orbital shaker to induce cell lysis and the plate incubated at room temperature for 10 min prior to the detection of a luminescent signal.
(§2) Supplementary Figure 11. Cellular viability following peptide treatment. The viability of
(§3) (a ) He pG2 a nd (b ) DIDOL He p G2 cells was determined following treatment with increasing
(§4) concentrations of TAT-RINGPe p2 and TAT-ScramPep (100 µM). […]

ΔIDOL HepG2 cells = conditions: concentrations up to 100 μM, 72 h
Method: as §1, §2, §3, §4

[2] = target: T1, 6× His-tagged, full-length IDOL (Homo sapiens, UniProt Q8WY64); test: Surface plasmon resonance (SPR) affinity for IDOL; type: binding; conditions: for Kd: SPR, immobilized full-length His-IDOL, saturation at highest concentrations not observed; for binding to IDOL by SPR: linear counterparts of the cyclic peptides
T1 construct: Full length IDOL (1–445) was cloned with a TEV cleavable N-terminal 6xHis tag; made in house; host or cells: Spodoptera frugiperda Sf21 (baculovirus, pFastbac1)
T1 sequence (Q8WY64 1-445): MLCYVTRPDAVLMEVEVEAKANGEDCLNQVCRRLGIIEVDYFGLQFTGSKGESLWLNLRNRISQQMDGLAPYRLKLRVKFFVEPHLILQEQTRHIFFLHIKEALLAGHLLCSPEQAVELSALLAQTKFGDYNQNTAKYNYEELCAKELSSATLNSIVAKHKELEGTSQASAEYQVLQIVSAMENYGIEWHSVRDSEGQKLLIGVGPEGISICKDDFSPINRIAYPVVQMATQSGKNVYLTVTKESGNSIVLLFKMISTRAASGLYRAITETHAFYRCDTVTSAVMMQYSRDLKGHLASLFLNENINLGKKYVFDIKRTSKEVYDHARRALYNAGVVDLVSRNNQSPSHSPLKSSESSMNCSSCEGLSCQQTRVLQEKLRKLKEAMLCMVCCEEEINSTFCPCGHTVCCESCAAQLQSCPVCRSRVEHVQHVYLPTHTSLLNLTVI
Text: We initially assessed the affinity of the 6 selected cyclic peptides for IDOL by surface plasmon resonance (SPR). Although saturation at the highest concentrations was not observed, due to hydrophobic effects, Kd values could be determined for five peptides (Table 1). […] The hit rate for our IDOL screen is in line with that for previous SICLOPPS screens.[21],[25] It should be noted that although cyclo-CTIFLL and cyclo-CTLILF contain the same amino acids, changing the order in which these are arranged results in activity loss.
All measurements were performed on a Biacore S200 (GE healthcare) using running buffer 10 mM HEPES, 300 mM NaCl, 1 mM TCEP, 0.05% Tween 20 and 4% DMSO at pH 8.0. In brief, 6× His-tagged, full-length IDOL was immobilized on a NTA-chip (Xantec), to a final level of ∼6000 RU. The chip was pre-loaded with Ni^2+ to facilitate efficient capture of His-tagged protein onto the chip. The activity of the immobilized protein was confirmed using a reference compound.
Supplementary Figure 2. […] Saturation of binding was not observed due to the hydrophobic nature of the peptides
(1 picture or pasted object on this page, not shown here)

FERM domain of IDOL = system: T2, FERM domain of IDOL; test: 1H 15N HSQC NMR binding to FERM domain (negative control)
T2 construct: made in house; host or cells: E. coli BL21
Text: (§5) The lead candidates, cyclo-CTIFLL and cyclo-CFFLYT, were next analyzed for binding to the RING domain of IDOL by ^1H ^15N HSQC NMR. We also assessed the binding of each peptide to the FERM domain of IDOL as a negative control. […] It should be noted that the 3 residues affected by cyclo-CFFLYT (named RINGPep1) form part of the PPI interface in the crystal structure of the homodimerized RING domains of IDOL (Fig. 1c and ESI Fig. 6 ^†).[15] Furthermore, mutation of V431R coupled with a L433R mutation is known to result in a dimer deficient IDOL.[15]
(§6) ^15N-labeled RING and FERM domains were prepared for NMR experiments by buffer exchange using Amicon Ultra-4 Centrifugal Filter Units with 3 kDa molecular weight cut-off membranes. Buffer conditions for the NMR studies were 50 mM TRIS-d11 pH 7.5, 200 mM NaCl, 3 mM TCEP, 10% (v/v) D2O for the RING domain and 25 mM TRIS-d11, 25 mM NaPi, pH 7.5, 300 mM NaCl, 3 mM TCEP, 10% (v/v) D2O for the FERM domain. The protein concentrations were 80 μM and 70 μM, for the RING and FERM domain respectively. Two-dimensional NMR SOFAST-HMQC titration experiments were carried out on a Bruker 600 MHz spectrometer equipped with a cryoprobe. […]

RING domain of IDOL = system: T3, RING domain of IDOL; test: 1H 15N HSQC NMR binding to RING domain
T3 construct: IDOL RING domain (G356-I445) was expressed as TEV cleavable N-terminal HN6-Lysine-Tag; HN6-Lysine-Tag (TEV-cleavable) (N); made in house; host or cells: E. coli (pET vector)
Text: as §5, §6

6× His IDOL = target: T4, 6× His IDOL (Homo sapiens, UniProt Q8WY64); test: Microscale thermophoresis (MST) binding to IDOL; conditions: full length His-IDOL (44 nM)
T4 construct: Full length IDOL (1–445) was cloned with a TEV cleavable N-terminal 6xHis tag; made in house; host or cells: Spodoptera frugiperda Sf21 (baculovirus, pFastbac1)
T4 sequence (Q8WY64 1-445): T1 sequence (Q8WY64 1-445)
Text: We sought to improve the affinity of RINGPep1 prior to assessing its effect in cells. We used alanine-scanning to identify residues that were critical to the activity of RINGpep1; we constructed 5 SICLOPPS plasmids where each amino acid (except the set cysteine, which is required for intein splicing) was replaced with alanine. These plasmids were transformed into the IDOL RTHS and assessed for disruption of IDOL homodimerization by drop-spotting. […] We therefore synthesized a handful of RINGPep1 analogues with the second position containing a non-natural phenylalanine analogue. After purification, the affinity of each of these compounds for IDOL was assessed by MST. […] The ability of RINGpep2 to disrupt IDOL homodimerization was assessed in vitro using a competition assay in which increasing concentrations of IDOL were titrated into a 45 nM solution of dye-labelled IDOL. Binding of non-labelled IDOL to dye-labelled IDOL will be observed in the MST signal, allowing the Kd of IDOL homodimerization to be quantified. Using this approach, we measured a Kd of 2.9 ± 0.1 μM for IDOL homodimerization. The experiment was repeated in the presence of RINGpep2 (100 μM), with the expectation that the apparent Kd of IDOL homodimerization would increase in the presence of an inhibitor of IDOL homodimerization.
MST was performed on a Monilith NT.115 system (Nano Temper Technologies, DE). […]

- solubility in the assay buffer ([1]; autoubiquitination assay buffer): poor solubility
- water solubility ([1]; compared with the 3-(1-naphthyl)-L-alanine analogue): marginally better
Compound: CC(C)C[C@@H]1NC(=O)[C@H](CC2CCCCC2)NC(=O)[C@H](Cc2ccccc2)NC(=O)[C@H](CS)NC(=O)[C@H]([C@@H](C)O)NC(=O)[C@H](Cc2ccc(O)cc2)NC1=O [RINGPep2, cyclo-CF-Cha-LYT] (HELM PEPTIDE1{C.F.[Cha].L.Y.T}$PEPTIDE1,PEPTIDE1,1:R1-6:R2$$$V2.0)

Compound: CC(C)C[C@@H]1NC(=O)[C@H](CC2CCCCC2)NC(=O)[C@H](Cc2ccccc2)NC(=O)[C@H](CSSC[C@H](N)C(=O)NCC(=O)N[C@@H](CCCNC(=N)N)C(=O)N[C@@H](CCCCN)C(=O)N[C@@H](CCCCN)C(=O)N[C@@H](CCCNC(=N)N)C(=O)N[C@@H](CCCNC(=N)N)C(=O)N[C@@H](CCC(N)=O)C(=O)N[C@@H](CCCNC(=N)N)C(=O)N[C@@H](CCCNC(=N)N)C(=O)N[C@@H](CCCNC(=N)N)C(=O)N2CCC[C@H]2C(=O)N2CCC[C@H]2C(=O)N[C@@H](CCC(N)=O)C(=O)O)NC(=O)[C@H]([C@@H](C)O)NC(=O)[C@H](Cc2ccc(O)cc2)NC1=O [Tat-RINGPep2]
- toxicity (HepG2 cells): no toxicity
- toxicity (ΔIDOL HepG2 cells): no toxicity

Compound: CC(C)C[C@@H]1NC(=O)[C@H](Cc2ccc(O)cc2)NC(=O)[C@H](CSSC[C@H](N)C(=O)NCC(=O)N[C@@H](CCCNC(=N)N)C(=O)N[C@@H](CCCCN)C(=O)N[C@@H](CCCCN)C(=O)N[C@@H](CCCNC(=N)N)C(=O)N[C@@H](CCCNC(=N)N)C(=O)N[C@@H](CCC(N)=O)C(=O)N[C@@H](CCCNC(=N)N)C(=O)N[C@@H](CCCNC(=N)N)C(=O)N[C@@H](CCCNC(=N)N)C(=O)N2CCC[C@H]2C(=O)N2CCC[C@H]2C(=O)N[C@@H](CCC(N)=O)C(=O)O)NC(=O)[C@H](CC2CCCCC2)NC(=O)[C@H]([C@@H](C)O)NC(=O)[C@H](Cc2ccccc2)NC1=O [Tat-ScramPep]
- toxicity (HepG2 cells): no toxicity
- toxicity (ΔIDOL HepG2 cells): no toxicity

- Kd ([2]; read-out: Kd): ~3 mM
Compound: CC[C@H](C)[C@@H]1NC(=O)[C@H](CC(C)C)NC(=O)[C@H](Cc2ccccc2)NC(=O)[C@H](CC(C)C)NC(=O)[C@H](CCCNC(=N)N)NC(=O)[C@H](CS)NC1=O [cyclo-CRLFLI] (HELM PEPTIDE1{C.R.L.F.L.I}$PEPTIDE1,PEPTIDE1,1:R1-6:R2$$$V2.0)

- Kd ([2]; read-out: Kd): ~1 mM
Compound: CC[C@H](C)[C@@H]1NC(=O)[C@H](C(C)C)NC(=O)[C@H](C(C)C)NC(=O)[C@H](CO)NC(=O)[C@H](CS)NC(=O)[C@H](CC(C)C)NC1=O [cyclo-CSVVIL] (HELM PEPTIDE1{C.S.V.V.I.L}$PEPTIDE1,PEPTIDE1,1:R1-6:R2$$$V2.0)

- Kd ([2]; read-out: Kd): 0.0209 ± 0.011 mM
Compound: CC[C@H](C)[C@@H]1NC(=O)[C@H]([C@@H](C)O)NC(=O)[C@H](CS)NC(=O)[C@H](CC(C)C)NC(=O)[C@H](CC(C)C)NC(=O)[C@H](Cc2ccccc2)NC1=O [cyclo-CTIFLL] (HELM PEPTIDE1{C.T.I.F.L.L}$PEPTIDE1,PEPTIDE1,1:R1-6:R2$$$V2.0)
- chemical shift changes, FERM domain of IDOL (FERM domain of IDOL): did not observe any chemical shift changes
- chemical shift changes, RING domain of IDOL (RING domain of IDOL): did not observe any chemical shift changes

- Kd ([2]; read-out: Kd): ~10 mM
Compound: CC[C@H](C)[C@@H]1NC(=O)[C@H](CC(C)C)NC(=O)[C@H]([C@@H](C)O)NC(=O)[C@H](CS)NC(=O)[C@H](Cc2ccccc2)NC(=O)[C@H](CC(C)C)NC1=O [cyclo-CTLILF] (HELM PEPTIDE1{C.T.L.I.L.F}$PEPTIDE1,PEPTIDE1,1:R1-6:R2$$$V2.0)

- Kd [2]: No activity
Compound: CC[C@H](C)[C@@H]1NC(=O)[C@H](Cc2ccccc2)NC(=O)[C@H](C(C)C)NC(=O)[C@H]([C@@H](C)O)NC(=O)[C@H](CS)NC(=O)[C@H]([C@@H](C)CC)NC1=O [cyclo-CTVFII] (HELM PEPTIDE1{C.T.V.F.I.I}$PEPTIDE1,PEPTIDE1,1:R1-6:R2$$$V2.0)

- binding to IDOL by SPR [2]: no binding observed
Compound: CFFLYT [linear counterpart of cyclo-CFFLYT]

- binding to IDOL by SPR [2]: no binding observed
Compound: CTIFLL [linear counterpart of cyclo-CTIFLL]

- binding to IDOL by MST (6× His IDOL): did not bind
Compound: cyclo-CYLFT[Cha] [ScramPep]
